Results taken from ChEMBL document CHEMBL3885881, “DrugMatrix”.

Species: Rattus norvegicus
Assay: DrugMatrix - Regimen: Daily Repeat
Assay type: toxicity, organism-based, Sprague-Dawley
Parameters: regimen Daily Repeat, gender Male, age 6-8 weeks
Settings: in vivo, po, 24 mg/kg, route oral GAVAGE, dose level High, […]; for BASOPHIL / EOSINOPHIL / ERYTHROCYTE COUNT / HEMATOCRIT / HEMOGLOBIN / LEUKOCYTE COUNT / LYMPHOCYTE / MEAN CORPUSCULAR HEMOGLOBIN / MEAN CORPUSCULAR HEMOGLOBIN CONCENTRATION / MEAN CORPUSCULAR VOLUME / MONOCYTE / NEUTROPHIL / PLATELET COUNT: tissue Blood; for ALANINE AMINOTRANSFERASE / ALBUMIN / ALKALINE PHOSPHATASE / ASPARTATE AMINOTRANSFERASE / BLOOD UREA NITROGEN / CARBON DIOXIDE / CHLORIDE / CHOLESTEROL / CREATINE PHOSPHOKINASE / CREATININE / GLUCOSE / LACTATE DEHYDROGENASE / LIPASE / PHOSPHORUS / POTASSIUM / SODIUM / TOTAL BILIRUBIN / TOTAL PROTEIN / URIC ACID: tissue Plasma

Question: What does the source list for c1ccoc1 [FURAN]?
Answer: BASOPHIL (72 h, time 3 day): 0.77%; EOSINOPHIL (72 h, time 3 day): 0.73%; ERYTHROCYTE COUNT (72 h, time 3 day): 7.35 x10E6/uL; HEMATOCRIT (72 h, time 3 day): 48.6%; HEMOGLOBIN (72 h, time 3 day): 15.9 G/DL; LEUKOCYTE COUNT (72 h, time 3 day): 11.15 x10E3/uL; LYMPHOCYTE (72 h, time 3 day): 82.1%; MEAN CORPUSCULAR HEMOGLOBIN (72 h, time 3 day): 21.57 pg; MEAN CORPUSCULAR HEMOGLOBIN CONCENTRATION (72 h, time 3 day): 32.67 G/DL; MEAN CORPUSCULAR VOLUME (72 h, time 3 day): 66.1 fL; MONOCYTE (72 h, time 3 day): 3.27%; NEUTROPHIL (72 h, time 3 day): 11.37%; PLATELET COUNT (72 h, time 3 day): 1059 x10E3/uL; ALANINE AMINOTRANSFERASE (72 h, time 3 day): 358 u/L; ALBUMIN (72 h, time 3 day): 3.77 G/DL; ALKALINE PHOSPHATASE (72 h, time 3 day): 771.67 u/L; ASPARTATE AMINOTRANSFERASE (72 h, time 3 day): 316 u/L; BLOOD UREA NITROGEN (72 h, time 3 day): 12.33 mg/dL; CARBON DIOXIDE (72 h, time 3 day): 25 mmol/L; CHLORIDE (72 h, time 3 day): 105.67 MEQ/L; CHOLESTEROL (72 h, time 3 day): 87.67 mg/dL; CREATINE PHOSPHOKINASE (72 h, time 3 day): 333.33 u/L; CREATININE (72 h, time 3 day): 0.57 mg/dL; GLUCOSE (72 h, time 3 day): 150.67 mg/dL; LACTATE DEHYDROGENASE (72 h, time 3 day): 707 u/L; LIPASE (72 h, time 3 day): 11.67 u/L; PHOSPHORUS (72 h, time 3 day): 13.97 mg/dL; POTASSIUM (72 h, time 3 day): 6.6 MEQ/L; SODIUM (72 h, time 3 day): 149.33 MEQ/L; TOTAL BILIRUBIN (72 h, time 3 day): 0.93 mg/dL; TOTAL PROTEIN (72 h, time 3 day): 5.4 G/DL; URIC ACID (72 h, time 3 day): 2.27 mg/dL; BASOPHIL (120 h, time 5 day): 0.57%; EOSINOPHIL (120 h, time 5 day): 0.6%; ERYTHROCYTE COUNT (120 h, time 5 day): 7.68 x10E6/uL; HEMATOCRIT (120 h, time 5 day): 50.57%; HEMOGLOBIN (120 h, time 5 day): 16.23 G/DL; LEUKOCYTE COUNT (120 h, time 5 day): 17.47 x10E3/uL; LYMPHOCYTE (120 h, time 5 day): 82.63%; MEAN CORPUSCULAR HEMOGLOBIN (120 h, time 5 day): 21.1 pg; MEAN CORPUSCULAR HEMOGLOBIN CONCENTRATION (120 h, time 5 day): 32.1 G/DL; MEAN CORPUSCULAR VOLUME (120 h, time 5 day): 65.87 fL; MONOCYTE (120 h, time 5 day): 2.43%; NEUTROPHIL (120 h, time 5 day): 12.47%; PLATELET COUNT (120 h, time 5 day): 1240.33 x10E3/uL; ALANINE AMINOTRANSFERASE (120 h, time 5 day): 114.33 u/L; ALBUMIN (120 h, time 5 day): 3.83 G/DL; ALKALINE PHOSPHATASE (120 h, time 5 day): 986 u/L; ASPARTATE AMINOTRANSFERASE (120 h, time 5 day): 240.67 u/L; BLOOD UREA NITROGEN (120 h, time 5 day): 12.33 mg/dL; CARBON DIOXIDE (120 h, time 5 day): 30.67 mmol/L; CHLORIDE (120 h, time 5 day): 101.67 MEQ/L; CHOLESTEROL (120 h, time 5 day): 93.33 mg/dL; CREATINE PHOSPHOKINASE (120 h, time 5 day): 798.67 u/L; CREATININE (120 h, time 5 day): 0.37 mg/dL; GLUCOSE (120 h, time 5 day): 143 mg/dL; LACTATE DEHYDROGENASE (120 h, time 5 day): 233.67 u/L; LIPASE (120 h, time 5 day): 14.67 u/L; PHOSPHORUS (120 h, time 5 day): 12.43 mg/dL; POTASSIUM (120 h, time 5 day): 7.1 MEQ/L; SODIUM (120 h, time 5 day): 148.33 MEQ/L; TOTAL BILIRUBIN (120 h, time 5 day): 0.87 mg/dL; TOTAL PROTEIN (120 h, time 5 day): 5.63 G/DL; URIC ACID (120 h, time 5 day): 2.27 mg/dL; BASOPHIL (time 14 day): 0.54%; EOSINOPHIL (time 14 day): 0.64%; ERYTHROCYTE COUNT (time 14 day): 8.42 x10E6/uL; HEMATOCRIT (time 14 day): 50.4%; HEMOGLOBIN (time 14 day): 16.6 G/DL; LEUKOCYTE COUNT (time 14 day): 14.86 x10E3/uL; LYMPHOCYTE (time 14 day): 74.12%; MEAN CORPUSCULAR HEMOGLOBIN (time 14 day): 19.76 pg; MEAN CORPUSCULAR HEMOGLOBIN CONCENTRATION (time 14 day): 32.96 G/DL; MEAN CORPUSCULAR VOLUME (time 14 day): 59.9 fL; MONOCYTE (time 14 day): 2.54%; NEUTROPHIL (time 14 day): 20.58%; PLATELET COUNT (time 14 day): 1423.6 x10E3/uL; ALANINE AMINOTRANSFERASE (time 14 day): 56 u/L; ALBUMIN (time 14 day): 4.28 G/DL; ALKALINE PHOSPHATASE (time 14 day): 706.2 u/L; ASPARTATE AMINOTRANSFERASE (time 14 day): 86.6 u/L; BLOOD UREA NITROGEN (time 14 day): 13.2 mg/dL; CARBON DIOXIDE (time 14 day): 27 mmol/L; CHLORIDE (time 14 day): 104 MEQ/L; CHOLESTEROL (time 14 day): 106.8 mg/dL; CREATINE PHOSPHOKINASE (time 14 day): 224.2 u/L; CREATININE (time 14 day): 0.42 mg/dL; GLUCOSE (time 14 day): 136.6 mg/dL; LACTATE DEHYDROGENASE (time 14 day): 113.8 u/L; LIPASE (time 14 day): 17.2 u/L; PHOSPHORUS (time 14 day): 10.26 mg/dL; POTASSIUM (time 14 day): 5.84 MEQ/L; SODIUM (time 14 day): 148.4 MEQ/L; TOTAL BILIRUBIN (time 14 day): 0.72 mg/dL; TOTAL PROTEIN (time 14 day): 6.34 G/DL; URIC ACID (time 14 day): 1.26 mg/dL
